According to PMC4710608 (Environmental Health Perspectives, 2015):

Assays:
[1] = molecular target: T1, PPARγ (Mus musculus, UniProt P37238); test: GAL4-UAS luciferase transactivation assay in HEK293T/[…] cells; assay type: cell-based
T1 construct: gene Pparg
T1 sequence (P37238 193-505): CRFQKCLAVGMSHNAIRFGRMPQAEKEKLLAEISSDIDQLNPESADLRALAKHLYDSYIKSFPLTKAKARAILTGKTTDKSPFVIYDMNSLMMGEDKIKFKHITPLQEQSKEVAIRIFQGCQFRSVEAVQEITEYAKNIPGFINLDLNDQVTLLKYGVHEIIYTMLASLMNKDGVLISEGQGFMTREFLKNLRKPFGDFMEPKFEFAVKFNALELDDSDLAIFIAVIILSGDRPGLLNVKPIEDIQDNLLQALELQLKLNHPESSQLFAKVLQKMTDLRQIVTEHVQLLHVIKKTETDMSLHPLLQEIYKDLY

[2] = molecular target: T2, PPARγ (Homo sapiens, UniProt P37231); test: competitive TR-FRET binding assay (terbium donor, Fluormone Green tracer displacement)
T2 construct: gene PPARG
T2 sequence (P37231 231-505 limits assumed): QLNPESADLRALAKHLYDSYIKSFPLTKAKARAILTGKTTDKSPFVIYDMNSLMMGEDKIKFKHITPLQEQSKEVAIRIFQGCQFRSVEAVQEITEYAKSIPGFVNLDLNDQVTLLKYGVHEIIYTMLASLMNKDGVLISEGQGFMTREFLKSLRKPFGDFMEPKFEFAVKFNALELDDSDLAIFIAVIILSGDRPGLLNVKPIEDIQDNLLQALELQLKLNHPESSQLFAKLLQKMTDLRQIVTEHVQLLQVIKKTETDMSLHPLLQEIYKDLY

For CCCCC(CC)COC(=O)CC(C(=O)OCC(CC)CCCC)S(=O)(=O)O (centres unmarked) [DOSS], the “GAL4-UAS luciferase transactivation assay in HEK293T/17 cells” value [1] was “DOSS alone elicited dose-dependent increases in PPARγ-driven luciferase expression in the low ppm range” and the Kd [2] was 1380 nM.
